Source: US9238619B2, “Phenalkylamine derivatives, pharmaceutical compositions containing them, and their use in therapy” (AbbVie Deutschland GmbH & Co. KG, priority 2010, dated 2016)
Where a name gives a salt, the structure may show the parent alone.

Target: human GlyT1c transporter (Homo sapiens (Human), UniProt P48067)
Experiment: Radioligand binding assays using recombinant CHO cell membranes expressing human GlyT1
Settings: read-out: radioligand binding Kiapp
Protocol: Radioligand binding to human GlyT1c transporter-expressing membranes was determined as described in Mezler et al., Molecular Pharmacology 74:1705-1715, 2008.

Chain of human GlyT1c transporter (P48067 whole entry): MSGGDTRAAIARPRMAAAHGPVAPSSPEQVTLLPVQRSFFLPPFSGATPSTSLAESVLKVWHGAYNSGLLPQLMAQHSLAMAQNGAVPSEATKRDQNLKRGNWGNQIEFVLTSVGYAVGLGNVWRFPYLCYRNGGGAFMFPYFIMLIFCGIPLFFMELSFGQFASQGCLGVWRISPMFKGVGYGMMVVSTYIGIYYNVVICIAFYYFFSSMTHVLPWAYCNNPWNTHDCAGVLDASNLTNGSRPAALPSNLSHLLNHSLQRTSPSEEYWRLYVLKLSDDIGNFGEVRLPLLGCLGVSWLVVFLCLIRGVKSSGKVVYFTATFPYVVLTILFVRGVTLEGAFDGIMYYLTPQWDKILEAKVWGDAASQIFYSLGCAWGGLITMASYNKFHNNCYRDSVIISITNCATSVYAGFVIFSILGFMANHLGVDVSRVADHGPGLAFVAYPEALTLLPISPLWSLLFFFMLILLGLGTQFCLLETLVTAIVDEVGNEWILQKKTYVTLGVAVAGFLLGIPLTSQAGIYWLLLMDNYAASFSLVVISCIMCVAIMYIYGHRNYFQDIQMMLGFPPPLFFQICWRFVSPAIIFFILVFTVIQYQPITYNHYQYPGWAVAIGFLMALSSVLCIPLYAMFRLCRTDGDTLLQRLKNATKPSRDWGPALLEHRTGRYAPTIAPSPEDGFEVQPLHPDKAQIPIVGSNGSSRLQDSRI

Ki [nM]	Compound
≤ 100	Cn1cc(S(=O)(=O)NCCOc2cc(C(CN)Cc3ccccc3)ccc2F)cn1 (stereo not shown) [Example 3, 1-Methyl-1H-pyrazole-4-sulfonic acid {2-[5-(2-amino-1-benzyl-ethyl)-2-fluoro-phenoxy]-ethyl}-amide, hydrochloride]
≤ 100	Cn1cnc(S(=O)(=O)NCCOc2cc(C(CN)Cc3ccccc3)ccc2F)c1 (stereo not shown) [Example 4, 1-Methyl-1H-imidazole-4-sulfonic acid {2-[5-(2-amino-1-benzyl-ethyl)-2-fluoro-phenoxy]-ethyl}-amide, hydrochloride]
≤ 100	Cn1cc(S(=O)(=O)NCCOc2cccc(C(CN)Cc3ccccc3)c2)cn1 (stereo not shown) [Example 6, 1-Methyl-1H-pyrazole-4-sulfonic acid {2-[3-(2-amino-1-benzyl-ethyl)-phenoxy]-ethyl}-amide, hydrochloride]
≤ 1000	Cn1cnc(S(=O)(=O)NCCOc2cccc(C(CN)Cc3cccc(Cl)c3)c2)c1 (stereo not shown) [Example 9, 1-Methyl-1H-imidazole-4-sulfonic acid (2-{3-[2-amino-1-(3-chloro-benzyl)ethyl]-phenoxy}-ethyl)-amide, hydrochloride]
≤ 100	Cn1cc(S(=O)(=O)NCCOc2cccc(C(CN)Cc3cccc(C(F)(F)F)c3)c2)cn1 (stereo not shown) [Example 10, 1-Methyl-1H-pyrazole-4-sulfonic acid (2-{3-[2-amino-1-(3-trifluoromethylbenzyl)-ethyl]-phenoxy}-ethyl)-amide, hydrochloride]
≤ 10000	NCC(Cc1ccccc1)c1cccc(CNS(=O)(=O)CC2CC2)c1 (stereo not shown) [Example 14, N-[3-(2-Amino-1-benzyl-ethyl)-benzyl]-C-cyclopropyl-methanesulfonamide]
≤ 10000	Cn1cc(S(=O)(=O)NCc2cccc(C(Cc3ccccc3)C(N)=O)c2)cn1 (stereo not shown) [Example 15, 2-{3-[(1-Methyl-1H-pyrazole-4-sulfonylamino)-methyl]-phenyl}-3-phenyl-propionamide]
≤ 10000	Cn1cnc(S(=O)(=O)NCc2cccc(C(Cc3ccccc3)C(=O)N3CCOCC3)c2)c1 (stereo not shown) [Example 17, 1-Methyl-1H-imidazole-4-sulfonic acid 3-(1-benzyl-2-morpholin-4-yl-2-oxo-ethyl)-benzylamide]
≤ 100	Cn1cc(S(=O)(=O)NCc2cccc(C(CN)Cc3ccccc3)c2)cn1 (stereo not shown) [Example 18, 1-Methyl-1H-pyrazole-4-sulfonic acid 3-(2-amino-1-benzyl-ethyl)benzylamide, hydrochloride]
≤ 10000	Cn1cnc(S(=O)(=O)NCc2cccc(C(Cc3ccccc3)CN3CCOCC3)c2)c1 (stereo not shown) [Example 20, 1-Methyl-1H-imidazole-4-sulfonic acid 3-(1-benzyl-2-morpholin-4-yl-ethyl)benzylamide]
≤ 1000	Cn1cc(S(=O)(=O)NCc2cccc(C(Cc3ccccc3)CN3CCOCC3)c2)cn1 (stereo not shown) [Example 21, 1-Methyl-1H-pyrazole-4-sulfonic acid 3-(1-benzyl-2-morpholin-4-yl-ethyl)benzylamide]
≤ 10000	O=S(=O)(CC1CC1)NCc1cccc(C(Cc2ccccc2)CN2CCOCC2)c1 (stereo not shown) [Example 22, N-[3-(1-Benzyl-2-morpholin-4-yl-ethyl)-benzyl]-C-cyclopropyl-methanesulfonamide, hydrochloride]
≤ 100	CN(C)CC(Cc1ccccc1)c1cc(OCCNS(=O)(=O)c2cn(C)cn2)ccc1F (stereo not shown) [Example 23, 1-Methyl-1H-imidazole-4-sulfonic acid {2-[3-(1-benzyl-2-dimethylamino-ethyl)-4-fluoro-phenoxy]-ethyl}-amide]
≤ 1000	CN(C)CC(Cc1ccccc1)c1cccc(OCCNS(=O)(=O)c2cn(C)cn2)c1 (stereo not shown) [Example 25, 1-Methyl-1H-imidazole-4-sulfonic acid {2-[3-(1-benzyl-2-dimethylaminoethyl)-phenoxy]-ethyl}-amide]
≤ 100	CN(C)CC(Cc1cccc(C(F)(F)F)c1)c1cccc(OCCNS(=O)(=O)c2cn(C)cn2)c1 (stereo not shown) [Example 29, 1-Methyl-1H-imidazole-4-sulfonic acid (2-{3-[2-dimethylamino-1-(3-trifluoromethyl-benzyl)-ethyl]-phenoxy}-ethyl)-amide]
≤ 100	CN(C)CC(Cc1ccccc1)c1cc(OCCNS(=O)(=O)c2cnn(C)c2)ccc1Cl (stereo not shown) [Example 30, 1-Methyl-1H-pyrazole-4-sulfonic acid {2-[3-(1-benzyl-2-dimethylamino-ethyl)-4-chloro-phenoxy]-ethyl}-amide, hydrochloride]
≤ 100	CN(C)CC(Cc1ccccc1)c1ccc(F)c(OCCNS(=O)(=O)c2cnn(C)c2)c1 (stereo not shown) [Example 31, 1-Methyl-1H-pyrazole-4-sulfonic acid {2-[5-(1-benzyl-2-dimethylamino-ethyl)-2-fluoro-phenoxy]-ethyl}-amide]
≤ 1000	Cn1cc(S(=O)(=O)NCCOc2cccc(C(Cc3ccccc3)CN3CCCC3)c2)cn1 (stereo not shown) [Example 34, 1-Methyl-1H-pyrazole-4-sulfonic acid {2-[3-(1-benzyl-2-pyrrolidin-1-yl-ethyl)phenoxy]-ethyl}-amide]
≤ 1000	Cn1cnc(S(=O)(=O)NCCOc2cccc(C(Cc3ccccc3)CN3CCCC3)c2)c1 (stereo not shown) [Example 35, 1-Methyl-1H-imidazole-4-sulfonic acid {2-[3-(1-benzyl-2-pyrrolidin-1-yl-ethyl)phenoxy]-ethyl}-amide]
≤ 1000	Cn1cc(S(=O)(=O)NCc2cccc(C(Cc3ccccc3)CN3CCC3)c2)cn1 (stereo not shown) [Example 37, 1-Methyl-1H-pyrazole-4-sulfonic acid 3-(2-azetidin-1-yl-1-benzyl-ethyl)benzylamide, hydrochloride]
≤ 10000	CN(Cc1cccc(C(CNC(=O)OC(C)(C)C)C2(c3ccc(Cl)cc3)CCC2)c1)S(=O)(=O)c1cnn(C)c1 (stereo not shown) [Example 39, tert-Butyl {2-[1-(4-chlorophenyl)cyclobutyl]-2-[3-({methyl[(1-methyl-1H-pyrazol-4-yl)sulfonyl]amino}methyl)phenyl]ethyl}carbamate]

The remaining lines, values behind:

Compound	Ki [nM]
Cn1cnc(S(=O)(=O)NCCOc2ccc(F)c(C(CN)Cc3ccccc3)c2)c1 (stereo not shown) [Example 1, 1-Methyl-1H-imidazole-4-sulfonic acid {2-[3-(2-amino-1-benzyl-ethyl)-4-fluoro-phenoxy]-ethyl}-amide hydrochloride]	≤ 1000
Cn1cc(S(=O)(=O)NCCOc2cccc(C(CN)Cc3cccc(Cl)c3)c2)cn1 (stereo not shown) [Example 2, 1-Methyl-1H-pyrazole-4-sulfonic acid (2-{3-[2-amino-1-(3-chloro-benzyl)ethyl]-phenoxy}-ethyl)-amide, hydrochloride]	≤ 1000
Cn1cnc(S(=O)(=O)NCCOc2cccc(C(CN)Cc3ccccc3)c2)c1 (stereo not shown) [Example 5, 1-Methyl-1H-imidazole-4-sulfonic acid {2-[3-(2-amino-1-benzyl-ethyl)phenoxy]-ethyl}-amide]	≤ 100
Cn1cc(S(=O)(=O)NCCOc2cccc(C(CN)Cc3cc(F)cc(F)c3)c2)cn1 (stereo not shown) [Example 7, 1-Methyl-1H-pyrazole-4-sulfonic acid (2-{3-[2-amino-1-(3,5-difluoro-benzyl)ethyl]-phenoxy}-ethyl)-amide, hydrochloride]	≤ 1000
Cn1cc(S(=O)(=O)NCCOc2cccc(C(CN)Cc3ccc(Cl)cc3)c2)cn1 (stereo not shown) [Example 8, 1-Methyl-1H-pyrazole-4-sulfonic acid (2-{3-[2-amino-1-(4-chloro-benzyl)ethyl]-phenoxy}-ethyl)-amide, hydrochloride]	≤ 1000
Cn1cnc(S(=O)(=O)NCCOc2cccc(C(CN)Cc3cc(F)cc(F)c3)c2)c1 (stereo not shown) [Example 11, 1-Methyl-1H-imidazole-4-sulfonic acid (2-{3-[2-amino-1-(3,5-difluoro-benzyl)ethyl]-phenoxy}-ethyl)-amide, hydrochloride]	≤ 1000
Cn1cnc(S(=O)(=O)NCCOc2cccc(C(CN)Cc3cccc(C(F)(F)F)c3)c2)c1 (stereo not shown) [Example 12, 1-Methyl-1H-imidazole-4-sulfonic acid (2-{3-[2-amino-1-(3-trifluoromethylbenzyl)-ethyl]-phenoxy}-ethyl)-amide, hydrochloride]	≤ 100
Cn1cnc(S(=O)(=O)NCc2cccc(C(Cc3ccccc3)C(N)=O)c2)c1 (stereo not shown) [Example 16, 2-{3-[(1-Methyl-1H-imidazole-4-sulfonylamino)-methyl]-phenyl}-3-phenyl-propionamide]	≤ 10000
Cn1cnc(S(=O)(=O)NCc2cccc(C(CN)Cc3ccccc3)c2)c1 (stereo not shown) [Example 19, 1-Methyl-1H-imidazole-4-sulfonic acid 3-(2-amino-1-benzyl-ethyl)benzylamide, hydrochloride]	≤ 1000
CN(C)CC(Cc1ccccc1)c1cccc(OCCNS(=O)(=O)c2cnn(C)c2)c1 (stereo not shown) [Example 24, 1-Methyl-1H-pyrazole-4-sulfonic acid {2-[3-(1-benzyl-2-dimethylamino-ethyl)phenoxy]-ethyl}-amide]	≤ 100
CN(C)CC(Cc1ccccc1)c1cccc(CNS(=O)(=O)c2cn(C)cn2)c1 (stereo not shown) [Example 26, 1-Methyl-1H-imidazole-4-sulfonic acid 3-(1-benzyl-2-dimethylamino-ethyl)benzylamide]	≤ 1000
CN(C)CC(Cc1ccccc1)c1cccc(CNS(=O)(=O)c2cnn(C)c2)c1 (stereo not shown) [Example 27, 1-Methyl-1H-pyrazole-4-sulfonic acid 3-(1-benzyl-2-dimethylamino-ethyl)benzylamide]	≤ 1000
CN(C)CC(Cc1cccc(C(F)(F)F)c1)c1cccc(OCCNS(=O)(=O)c2cnn(C)c2)c1 (stereo not shown) [Example 28, 1-Methyl-1H-pyrazole-4-sulfonic acid (2-{3-[2-dimethylamino-1-(3-trifluoromethyl-benzyl)-ethyl]-phenoxy}-ethyl)-amide]	≤ 100
CN(C)CC(Cc1ccccc1)c1ccc(F)c(OCCNS(=O)(=O)c2cn(C)cn2)c1 (stereo not shown) [Example 32, 1-Methyl-1H-imidazole-4-sulfonic acid {2-[5-(1-benzyl-2-dimethylamino-ethyl)-2-fluoro-phenoxy]-ethyl}-amide]	≤ 100
CN(C)CC(Cc1ccccc1)c1cc(OCCNS(=O)(=O)c2cnn(C)c2)ccc1F (stereo not shown) [Example 33, 1-Methyl-1H-pyrazole-4-sulfonic acid {2-[3-(1-benzyl-2-dimethylamino-ethyl)-4-fluoro-phenoxy]-ethyl}-amide]	≤ 100
Cn1cc(S(=O)(=O)NCCOc2cccc(C(Cc3ccccc3)CN3CCC3)c2)cn1 (stereo not shown) [Example 36]	≤ 1000
